One series concerns the target T1, carboxypeptidase A (Bos taurus, UniProt P00730).
T1 construct: purchased Sigma Co. Type 1; host or cells: bovine pancreas
T1 sequence (P00730 111-417 limits assumed): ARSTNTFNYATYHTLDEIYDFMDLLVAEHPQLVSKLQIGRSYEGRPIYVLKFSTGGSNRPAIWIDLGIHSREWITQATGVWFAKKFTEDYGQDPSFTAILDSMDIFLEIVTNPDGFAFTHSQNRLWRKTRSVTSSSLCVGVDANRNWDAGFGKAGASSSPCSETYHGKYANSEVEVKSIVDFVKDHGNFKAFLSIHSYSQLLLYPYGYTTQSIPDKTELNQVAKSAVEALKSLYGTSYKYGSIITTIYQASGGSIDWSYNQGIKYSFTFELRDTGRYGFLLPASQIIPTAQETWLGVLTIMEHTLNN
Kind of series: inhibitory activity of the compounds to carboxypeptidase A. It counts as biochemical, bovine. The following applies: hippuryl-L-phenylalanine substrate, pH 7.5, 37° C., 30 minutes; read-out: IC50 (50% Inhibition Concentration) (converted). Here is the method:
(1) Method of testing the inhibitory activity of the compounds to carboxypeptidase A: The carboxypeptidase A-inhibitory activity was determined according to a modification of the method of Hayakari et al. (M. Hayakari et al., "Analytical Biochemistry" 84, 361-369, 1978). Thus, a mixture of 0.05 ml of a solution of 10 mM hippuryl-L-phenylalanine (as substrate), 0.25 ml of 0.05 M Tris-hydrochloride buffer (pH 7.5) containing 0.9 M NaCl and 0.15 ml of a solution containing a test compound as produced in Example 1, 2, 3 or 4 shown hereinafter was heated at 37° C. for 3 minutes. To said mixture was then added 0.05 ml of a carboxypeptidase A (Type 1, as extracted from bovine pancreas, a product of Sigma Co.), and the enzymatic reaction was effected at 37° C. for 30 minutes. The reaction solution was admixed with 0.03 ml of aqueous 1N sodium hydroxide to stop the reaction. After allowing to stand at ambient temperature for 15 minutes, the reaction solution was admixed with 2 ml of 0.06 M phosphate buffer (pH 7.2) and with 2 ml of a solution of 1% cyanuric chloride in ethylene glycol monomethylester. After the reaction solution was allowed to stand at ambient temperature for 5 minutes, absorbance (a) at 382 nm of the reaction solution was measured. For the blank test, the above procedure was repeated using said buffer solutions without the test compound, and the absorbance (b) was measured in the blank test. The percentage for inhibition to carboxypeptidase A was calculated according to the equation: [formula] On the basis of the values of percentages of inhibition measured by the above procedure, 50% Inhibition Concentration (IC50) was evaluated.

For series [1], the system named is D.T.H. response with sheep red blood cells. The series is described as follows: effect on cell-mediated or cellular immunity: Delayed Type Hypersensitivity (D.T.H.) with sheep red blood cells. It counts as in vivo, CDF1-mouse. The following applies: oral, 24 hours after challenge, * P < 0.05. Here is the method: (2) The effect on cell-mediated or cellular immunity:
The effect of the new arphamenine-related compounds on cell-mediated or cellular immunity was evaluated by measuring Delayed Type Hypersensitivity (D.T.H.) using mice which received sheep red blood cell inoculated as antigen into the footpad of mice for immunization (see P. H. Lagrange, G. B. Mackaness and T. E. Miller: "J. Exp. Med.", 139, 1529-1539 (1974)).
A suspension of 10^8 sheep red blood cells (SRBC) in 0.05 ml of physiological saline was subcutaneously injected into one footpad of each CDF1 -mouse (female, 8 weeks-aged, 5 mice in each group) for immunization. Simultaneously, the mouse under test was given orally the test compound at a dosage of 5 mg/Kg, 0.5 mg/Kg or 0.05 mg/Kg as a solution of the test compound which was prepared by dissolving the test compound in physiological saline and then filtering the resulting solution by a millipore filter. On 4 days after the administration of the test compound, 10^8 sheep red blood cells were subcutaneously injected into another footpad of each test mouse for secondary challenge of the D.T.H. response. 24 Hours after the challenge, the thickness of the footpads was measured with calipers. Concurrently, the thickness of footpad of control mice which had received the injection of SRBC and physiological saline without the administration of the test compound was also measured in each mouse.
The effect of the test compound on the DTH response was evaluated by a percentage of increase in footpad thickness as calculated according to the following equation: [formula]

For the next series, the system named is ICR-strain mice. The series is described as follows: Toxicity after intraperitoneal administration. In kind it is in vivo. To be noted: 100 mg/Kg intraperitoneally, ICR-strain mice (male, 5 weeks-aged).
In another series the test system is immune response. To be noted: earlier publications/filings; cited from earlier work.
A further series deals with tumor. To be noted: earlier filings; cited from earlier work.
A further series has as its system carboxypeptidase. The following applies: J. Antibiot., 37, 682 (1984); cited from earlier work.

In the case of `Cc1cc(C)nc(NCCCC(NC(=O)c2ccccc2)C(=O)CC(Cc2ccccc2)C(=O)O)n1` (centres unmarked) [Example 1 (b), 5-benzoylamino-8-[(4,6-dimethylpyrimidin-2-yl)amino]-4-oxo-2-phenylmethyloctanoic acid], the IC50 on carboxypeptidase A is 40.9 nM. In addition, the figures for the “Percentage of increase in footpad thickness” value (from here on “Percentage of increase”) in series [1] (0.05 mg/Kg), in series [1] (0.5 mg/Kg) and in series [1] (5 mg/Kg) were 107 Percentage, 121 Percentage and 128 Percentage, respectively. Also, the death entry in the series with ICR-strain mice is listed as “no death”.

As for `Cc1cc(C)nc(NCCCC(NC(=O)c2ccccc2)C(=O)CC(Cc2ccc(O)cc2)C(=O)O)n1` (centres unmarked) [Example 2 (b), 5-benzoylamino-8-[(4,6-dimethylpyrimidin-2-yl)amino]-2-(4'-hydroxyphenylmethyl)-4-oxo-octanoic acid], the IC50 on carboxypeptidase A is 17.4 nM. Also, the “Percentage of increase” value in series [1] (0.05 mg/Kg) amounted to 113 Percentage; in series [1] (0.5 mg/Kg) it was 130 Percentage; in series [1] (5 mg/Kg) it was 144 Percentage. In the series with ICR-strain mice, the death result is listed as “no death”.

As for `Cc1cc(C)nc(NCCCC(NC(=O)OCc2ccccc2)C(=O)CC(Cc2ccccc2)C(=O)O)n1` (centres unmarked) [Example 3 (b), 5-benzyloxycarbonylamino-8-[(4,6-dimethylpyrimidin-2-yl)amino]-4-oxo-2-phenylmethyloctanoic acid], the IC50 on carboxypeptidase A is 123 nM. Moreover, the “Percentage of increase” value in series [1] (0.05 mg/Kg) was determined as 110 Percentage; in series [1] (0.5 mg/Kg), 120 Percentage; in series [1] (5 mg/Kg) it was 136 Percentage. Moreover, the death result in the series on ICR-strain mice was “no death”.

Consider `Cc1cc(C)nc(NCCCC(NC(=O)OCc2ccccc2)C(=O)CC(Cc2ccc(O)cc2)C(=O)O)n1` (centres unmarked) [Example 4 (b), 5-benzyloxycarbonylamino-8-[(4,6-dimethylpyrimidin-2-yl)amino]-2-(4'-hydroxyphenylmethyl)-4-oxo-octanoic acid], for which the IC50 on carboxypeptidase A was 655 nM. Moreover, the “Percentage of increase” value came out at 110 Percentage in series [1] (0.05 mg/Kg), 123 Percentage in series [1] (0.5 mg/Kg) and 145 Percentage in series [1] (5 mg/Kg). Further, the death result in the series with ICR-strain mice was “no death”.

`N=C(N)NCCCC(N)C(=O)CC(Cc1ccccc1)C(=O)O` (centres unmarked) [arphamenine A]: in the series on immune response, the immunopotentiating activity entry is reported as “immunopotentiating activity”. Besides, the antitumor activity result in the series on tumor is on record as “antitumor activity”.

For the molecule `N=C(N)NCCCC(N)C(=O)CC(Cc1ccc(O)cc1)C(=O)O` (centres unmarked) [arphamenine B], in the series with immune response, the immunopotentiating activity result is on record as “immunopotentiating activity”. Moreover, the antitumor activity result with tumor is given as “antitumor activity”.

As to benzylmalic acid, the carboxypeptidase-inhibitory activity entry in the series with carboxypeptidase is “having a carboxypeptidase-inhibitory activity”. For the same molecule, in the series on immune response, the immunopotentiating activity result is recorded as “shows an immunopotentiating activity”.

Source of the values: US4661495A, “Arphamenine-related compounds useful for potentiating the immune response in a living animal” (Zaidan Hojin Biseibutsu Kagaku Kenkyu Kai, priority 1984, dated 1987).
